Measured values taken from article PMC2075511, “Molecular evolution of type VI intermediate filament proteins” (BMC Evolutionary Biology, 2007).

Molecular target: T1, HR domain of chicken transitin (HR) (Gallus gallus, UniProt Q90831)
T1 construct: entire C-terminal heptad repeat (HR) domain, more than 50 LQVEHGD repeats; T7- or His-tag fusion protein, expressed in bacteria
Experiment: malachite green phosphate release
Format: biochemical
Conditions: 10 mM MgCl2, pH 7.5, 25°C

T1 sequence (Q90831 323-1840 limits assumed): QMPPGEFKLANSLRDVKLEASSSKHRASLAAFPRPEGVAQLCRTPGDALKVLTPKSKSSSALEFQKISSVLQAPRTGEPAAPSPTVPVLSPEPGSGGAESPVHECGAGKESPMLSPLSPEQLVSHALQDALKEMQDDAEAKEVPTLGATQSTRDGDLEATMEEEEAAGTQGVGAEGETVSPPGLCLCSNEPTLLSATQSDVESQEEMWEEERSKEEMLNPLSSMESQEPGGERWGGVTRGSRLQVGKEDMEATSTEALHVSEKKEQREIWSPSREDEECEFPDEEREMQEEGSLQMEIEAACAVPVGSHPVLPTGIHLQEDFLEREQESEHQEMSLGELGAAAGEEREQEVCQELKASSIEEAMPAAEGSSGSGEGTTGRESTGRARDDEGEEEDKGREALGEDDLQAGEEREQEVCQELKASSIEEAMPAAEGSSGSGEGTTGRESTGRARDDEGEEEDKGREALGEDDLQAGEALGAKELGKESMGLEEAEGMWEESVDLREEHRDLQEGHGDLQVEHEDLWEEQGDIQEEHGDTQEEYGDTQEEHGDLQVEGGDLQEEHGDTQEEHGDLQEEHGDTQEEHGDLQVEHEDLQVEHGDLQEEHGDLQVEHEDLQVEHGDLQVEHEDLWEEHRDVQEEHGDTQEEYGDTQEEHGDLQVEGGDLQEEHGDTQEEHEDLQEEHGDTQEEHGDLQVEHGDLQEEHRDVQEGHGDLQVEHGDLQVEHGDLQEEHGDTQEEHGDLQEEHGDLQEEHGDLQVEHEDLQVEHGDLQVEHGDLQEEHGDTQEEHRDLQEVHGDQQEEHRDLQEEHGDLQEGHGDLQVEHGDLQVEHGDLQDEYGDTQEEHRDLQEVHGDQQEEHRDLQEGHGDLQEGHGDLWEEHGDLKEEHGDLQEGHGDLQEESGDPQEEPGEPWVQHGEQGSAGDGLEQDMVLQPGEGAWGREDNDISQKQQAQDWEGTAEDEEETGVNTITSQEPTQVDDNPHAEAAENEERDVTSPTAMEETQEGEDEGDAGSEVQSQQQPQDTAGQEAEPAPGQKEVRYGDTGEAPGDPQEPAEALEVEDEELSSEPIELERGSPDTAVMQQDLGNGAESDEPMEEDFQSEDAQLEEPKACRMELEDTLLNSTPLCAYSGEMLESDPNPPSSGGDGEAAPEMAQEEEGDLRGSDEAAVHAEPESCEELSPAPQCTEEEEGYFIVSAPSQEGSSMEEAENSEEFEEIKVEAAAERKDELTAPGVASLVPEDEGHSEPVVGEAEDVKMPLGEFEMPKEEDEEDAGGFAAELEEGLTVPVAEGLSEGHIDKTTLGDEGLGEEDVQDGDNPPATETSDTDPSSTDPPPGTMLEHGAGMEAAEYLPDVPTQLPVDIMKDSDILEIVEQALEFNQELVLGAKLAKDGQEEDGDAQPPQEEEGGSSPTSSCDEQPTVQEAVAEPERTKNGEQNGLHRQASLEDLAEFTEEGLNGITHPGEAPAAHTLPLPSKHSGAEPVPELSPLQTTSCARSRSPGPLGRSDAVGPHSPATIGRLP

Row | SMILES | malachite green phosphate release (1 mM ATP) | malachite green phosphate release (1 mM GTP)
1 | Nc1ncnc2c1ncn2[C@@H]1O[C@H](COP(=O)(O)OP(=O)(O)OP(=O)(O)O)[C@@H](O)[C@H]1O [ATP] | The HR domain of transitin has ATPase (Fig. 4a) as well as GTPase (Fig. 4b) activity | –
2 | Nc1nc2c(ncn2[C@@H]2O[C@H](COP(=O)(O)OP(=O)(O)OP(=O)(O)O)[C@@H](O)[C@H]2O)c(=O)[nH]1 [GTP] | – | The HR domain of transitin has ATPase (Fig. 4a) as well as GTPase (Fig. 4b) activity
